Laboratory results from the NIST ThermoML archive (doi:10.1021/acs.jced.6b00279).
± gives the expanded uncertainty stated by the source.

Conditions: Crystal; visual observation

Normal melting temperature: 105.00 ± 2 °C
Structure (SMILES): CCCC[n+]1ccccc1.[Br-] [1-butylpyridinium bromide]
